Drawing on US20250074891A1 (Anaxis Pharma Pty Ltd., priority 2021, published 2025), this text covers Kd for 29 molecules.

One experiment addresses RIP3 (Homo sapiens (Human), UniProt Q9Y572). The experiment can be described thus: KINOMEscan binding assay, RIP3. Conditions: Table 35. The protocol: Kinase assays. For most assays, kinase-tagged T7 phage strains were grown in parallel in 24-well blocks in an E. coli host derived from the BL21 strain. E. coli were grown to log-phase and infected with T7 phage from a frozen stock (multiplicity of infection=0.4) and incubated with shaking at 32° C. until lysis (90-150 minutes).
The Hill Slope was set to −1.

Another experiment addresses RIP1 (Homo sapiens (Human), UniProt Q13546). The experiment is described as follows: KINOMEscan binding assay, RIP1. Conditions: Table 35.

RIP1, sequence (Q13546 whole entry): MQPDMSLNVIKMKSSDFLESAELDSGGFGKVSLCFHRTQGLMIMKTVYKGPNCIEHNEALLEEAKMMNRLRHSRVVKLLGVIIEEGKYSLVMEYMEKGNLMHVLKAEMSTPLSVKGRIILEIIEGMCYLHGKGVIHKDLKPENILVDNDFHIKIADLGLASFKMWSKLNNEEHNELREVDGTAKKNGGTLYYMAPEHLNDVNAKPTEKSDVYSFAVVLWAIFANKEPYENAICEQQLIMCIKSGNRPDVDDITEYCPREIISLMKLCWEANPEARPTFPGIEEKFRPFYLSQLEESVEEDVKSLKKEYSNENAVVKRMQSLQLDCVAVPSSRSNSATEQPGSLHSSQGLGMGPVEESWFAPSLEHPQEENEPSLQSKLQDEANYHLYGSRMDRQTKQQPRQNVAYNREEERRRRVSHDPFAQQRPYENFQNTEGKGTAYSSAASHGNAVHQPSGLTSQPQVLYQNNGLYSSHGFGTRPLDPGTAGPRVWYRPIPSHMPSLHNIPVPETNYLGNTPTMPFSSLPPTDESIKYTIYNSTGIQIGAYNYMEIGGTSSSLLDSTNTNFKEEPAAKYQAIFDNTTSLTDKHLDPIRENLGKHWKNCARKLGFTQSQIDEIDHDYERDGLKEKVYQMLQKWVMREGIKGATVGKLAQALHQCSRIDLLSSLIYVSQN
RIP3, sequence (Q9Y572 whole entry): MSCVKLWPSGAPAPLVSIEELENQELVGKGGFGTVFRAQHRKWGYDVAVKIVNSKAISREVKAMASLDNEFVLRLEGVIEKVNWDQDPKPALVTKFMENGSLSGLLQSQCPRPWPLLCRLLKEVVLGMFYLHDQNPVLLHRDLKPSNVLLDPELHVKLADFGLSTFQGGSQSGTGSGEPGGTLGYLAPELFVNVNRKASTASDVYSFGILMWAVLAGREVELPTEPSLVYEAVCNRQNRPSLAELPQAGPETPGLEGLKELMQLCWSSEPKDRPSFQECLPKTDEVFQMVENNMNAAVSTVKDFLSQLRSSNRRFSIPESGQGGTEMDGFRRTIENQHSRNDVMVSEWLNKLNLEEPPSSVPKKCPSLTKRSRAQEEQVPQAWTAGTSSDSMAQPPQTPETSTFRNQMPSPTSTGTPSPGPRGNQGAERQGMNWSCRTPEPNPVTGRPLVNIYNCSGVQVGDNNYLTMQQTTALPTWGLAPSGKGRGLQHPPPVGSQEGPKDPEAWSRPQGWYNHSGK

A word on the Kd: it is the equilibrium constant for the complex coming apart. High values mean lower affinity, low ones higher affinity. As to `CCS(=O)(=O)Nc1ccc(-c2n[nH]c(Nc3cccnc3)c2C(N)=O)cc1OCc1ccc(F)cc1` [Compound 6, 3-(4-(ethylsulfonamido)-3-((4-fluorobenzyl)oxy)phenyl) 5-(pyridin-3-ylamino)-1H-pyrazole-4-carboxamide], the Kd on RIP3 and at RIP1 was over 30 µM throughout.
`CCS(=O)(=O)Nc1ccc(-c2n[nH]c(Nc3cnccn3)c2C(N)=O)cc1OCC1CCN(C(C)=O)CC1` [Compound 7, 3-(3-((1-acetylpiperidin-4-yl)methoxy)-4-(ethylsulfonamido)phenyl)-5-(pyrazin-2-ylamino)-1H-pyrazole-4-carboxamide]: the Kd on RIP3 and on RIP1 was over 30 µM each time.
Consider `CCS(=O)(=O)Nc1ccc(-c2n[nH]c(Nc3cccc(C(F)(F)F)n3)c2C(N)=O)cc1OCc1ccc(F)cc1` [Compound 8, 3-(4-(ethylsulfon-amido)-3-((4-fluoro-benzyl)oxy)phenyl)-5-((6-(trifluoro-methyl)pyridin-2-yl)amino)-1H-pyrazole-4-carboxamide], for which the Kd on RIP3 and on RIP1 was over 30 µM each time.
Regarding `CCS(=O)(=O)Nc1ccc(-c2n[nH]c(Nc3cccc(C(F)(F)F)n3)c2C(N)=O)cc1OCC1CCCC1` [Compound 10, 3-(3-(cyclopentyl-methoxy)-4-(ethylsulfon-amido)phenyl)-5-((6-(trifluoro-methyl)pyridin-2-yl)amino)-1H-pyrazole-4-carboxamide], the Kd at RIP3 and on RIP1 was over 30 µM throughout.
For the molecule `CCS(=O)(=O)Nc1ccc(-c2n[nH]c(Nc3cccc(C(F)(F)F)n3)c2C(N)=O)cc1OCC(C)C` [Compound 12, 3-(4-(ethylsulfonamido)-3-isobutoxyphenyl)-5-((6-(trifluoromethyl)pyridin-2-yl)amino)-1H-pyrazole-4-carboxamide], the Kd at RIP3 and at RIP1 was over 30 µM each time.
In the case of `CCS(=O)(=O)Nc1ccc(-c2n[nH]c(Nc3cccc(C(F)(F)F)n3)c2C(N)=O)cc1OCc1ccncc1` [Compound 16, 3-(4-(ethylsulfon-amido)-3-(pyridin-4-ylmethoxy)phenyl)-5-((6-(trifluoro-methyl)pyridin-2-yl)amino)-1H-pyrazole-4-carboxamide], the Kd at RIP3 and on RIP1 was over 30 µM in each case.
Regarding `CCS(=O)(=O)Nc1ccc(-c2n[nH]c(Nc3ccccn3)c2C(N)=O)cc1OCC1CCCCC1` [Compound 35, 3-(3-(cyclohexyl-methoxy)-4-(ethylsulfon-amido)phenyl)-5-(pyridin-2-ylamino)-1H-pyrazole-4-carboxamide], the Kd at RIP3 and on RIP1 was over 30 µM throughout.
Consider `CCS(=O)(=O)Nc1ccc(-c2n[nH]c(Nc3ccccn3)c2C(N)=O)cc1OCC(C)C` [Compound 37, 3-(4-(ethylsulfonamido)-3-isobutoxyphenyl)-5-(pyridin-2-ylamino)-1H-pyrazole-4-carboxamide], for which the dissociation constant Kd at RIP3 and at RIP1 was over 30 µM in each case.
In the case of `CCS(=O)(=O)Nc1ccc(-c2n[nH]c(Nc3cncc(C(F)(F)F)n3)c2C(N)=O)cc1` [Compound 44, 3-(4-(ethylsulfonamido)phenyl)-5-((6-(trifluoromethyl)pyrazin-2-yl)amino)-1H-pyrazole-4-carboxamide], the Kd on RIP3 and at RIP1 was over 30 µM each time.
On to `COCCS(=O)(=O)Nc1ccc(-c2n[nH]c(Nc3cccc(C(F)(F)F)n3)c2C(N)=O)cc1` [Compound 50, 3-(4-((2-methoxyethyl)sulfonamido)phenyl)-5-((6-(trifluoromethyl)pyridin-2-yl)amino)-1H-pyrazole-4-carboxamide], for which the Kd on RIP3 and on RIP1 was over 30 µM throughout.
`CN(C)CCS(=O)(=O)Nc1ccc(-c2n[nH]c(Nc3cccc(C(F)(F)F)n3)c2C(N)=O)cc1` [Compound 51, 3-(4-((2-(dimethylamino)ethyl)sulfonamido)phenyl)-5-((6-(trifluoromethyl)pyridin-2-yl)amino)-1H-pyrazole-4-carboxamide]: the Kd on RIP3 and at RIP1 was over 30 µM each time.
Consider `CCS(=O)(=O)Nc1ccc(-c2n[nH]c(Nc3cccnn3)c2C(N)=O)cc1` [Compound 64, 3-(4-ethanesulfonamidophenyl)-5-[(pyridazin-3-yl)amino]-1H-pyrazole-4-carboxamide], for which the Kd at RIP3 and on RIP1 was over 30 µM each time.
Take `CCS(=O)(=O)Nc1ccc(-c2n[nH]c(Nc3cnc4cc(Cl)ccc4n3)c2C(N)=O)cc1` [Compound 65, 5-((6-chloroquinoxalin-2-yl)amino)-3-(4-(ethylsulfonamido)phenyl)-1H-pyrazole-4-carboxamide]: the Kd on RIP3 and on RIP1 was over 30 µM each time.
Turning to `CC(C)(C)S(=O)(=O)Nc1ccc(-c2n[nH]c(Nc3cnccn3)c2C(N)=O)cc1` [Compound 69, 3-(4-((1,1-dimethylethyl)sulfonamido)phenyl)-5-(pyrazin-2-ylamino)-1H-pyrazole-4-carboxamide], the Kd on RIP3 and on RIP1 was over 30 µM in each case.
Turning to `NC(=O)c1c(-c2ccc(NS(=O)(=O)CC3CCC3)cc2)n[nH]c1Nc1cnccn1` [Compound 81, 3-(4-((cyclobutylmethyl)sulfonamido)phenyl)-5-(pyrazin-2-ylamino)-1H-pyrazole-4-carboxamide], the Kd on RIP3 and on RIP1 was over 30 µM throughout.
With `COc1ccc(S(=O)(=O)Nc2ccc(-c3n[nH]c(Nc4cnccn4)c3C(N)=O)cc2)cc1` [Compound 82, 3-(4-((4-methoxyphenyl)sulfonamido)phenyl)-5-(pyrazin-2-ylamino)-1H-pyrazole-4-carboxamide], the Kd at RIP3 and on RIP1 was over 30 µM each time.
Regarding `NC(=O)c1c(-c2ccc(NS(=O)(=O)Cc3cccc(C(F)(F)F)c3)cc2)n[nH]c1Nc1cnccn1` [Compound 83], the Kd on RIP3 and on RIP1 was over 30 µM in each case.
Turning to `CCCS(=O)(=O)Nc1ccc(-c2n[nH]c(Nc3cnccn3)c2C(N)=O)cc1` [Compound 97, 3-(4-(propylsulfonamido)phenyl)-5-(pyrazin-2-ylamino)-1H-pyrazole-4-carboxamide], the Kd at RIP3 and on RIP1 was over 30 µM in each case.
Regarding `CCS(=O)(=O)Nc1ccc(-c2n[nH]c(Nc3cc(C)ncc3F)c2C(N)=O)cc1` [Compound 111, 3-(4-(ethylsulfonamido)phenyl)-5-((5-fluoro-2-methylpyridin-4-yl)amino)-1H-pyrazole-4-carboxamide], the Kd on RIP3 and on RIP1 was over 30 µM throughout.
`COCCOc1cc(Nc2[nH]nc(-c3ccc(NS(=O)(=O)CCN(C)C)cc3)c2C(N)=O)ccn1` [Compound 116, 3-(4-((2-(dimethylamino)ethyl)sulfonamido)phenyl)-5-((2-(2-methoxyethoxy)pyridin-4-yl)amino)-1H-pyrazole-4-carboxamide]: the equilibrium dissociation constant (Kd) on RIP3 and on RIP1 was over 30 µM each time.
`CCS(=O)(=O)Nc1ccc(-c2n[nH]c(Nc3ccnc(C)n3)c2C(N)=O)cc1` [Compound 125, 3-(4-(ethylsulfonamido)phenyl)-5-((2-methylpyrimidin-4-yl)amino)-1H-pyrazole-4-carboxamide]: the Kd on RIP3 and on RIP1 was over 30 µM throughout.
`Cc1ccc(CS(=O)(=O)Nc2ccc(-c3n[nH]c(Nc4ccccn4)c3C(N)=O)cc2)cc1` [Compound 132, 5-(pyridin-2-ylamino)-3-(4-((p-tolylmethyl)sulfonamido)phenyl)-1H-pyrazole-4-carboxamide]: the Kd on RIP3 and at RIP1 was over 30 µM throughout.
For `CCS(=O)(=O)Nc1ccc(-c2n[nH]c(Nc3ccc4ccc(Cl)cc4n3)c2C(N)=O)cc1OCc1ccc(F)cc1` [Compound 138, 5-((7-chloroquinolin-2-yl)amino)-3-(4-(ethylsulfonamido)-3-((4-fluorobenzyl)oxy)phenyl)-1H-pyrazole-4-carboxamide], the Kd on RIP3 and at RIP1 was over 30 µM in each case.
Turning to `CCS(=O)(=O)Nc1ccc(-c2n[nH]c(Nc3cccc(C(F)(F)F)n3)c2C(N)=O)c(OCc2ccc(F)cc2)c1` [Compound 141, 3-(4-(ethylsulfonamido)-2-((4-fluorobenzyl)oxy)phenyl)-5-((6-(trifluoromethyl)pyridine-2-yl)amino)-1H-pyrazole-4-carboxamide], the Kd at RIP3 and at RIP1 was over 30 µM each time.
`NC(=O)c1c(-c2ccc(NS(=O)(=O)CCC(F)(F)F)c(OCc3ccc(F)cc3)c2)n[nH]c1Nc1cccc(C(F)(F)F)n1` [Compound 182, 3-(3-((4-fluorobenzyl)oxy)-4-((3,3,3-trifluoropropyl)sulfonamido)phenyl)-5-((6-(trifluoromethyl)pyridine-2-yl)amino)-1H-pyrazole-4-carboxamide]: the Kd at RIP3 and at RIP1 was over 30 µM each time.
Consider `CCS(=O)(=O)Nc1ccc(-c2n[nH]c(Nc3cnccn3)c2C(N)=O)cc1OCC1CCCN(C)C1` (stereo not shown) [Compound 187, 3-(4-(ethylsulfonamido)-3-((1-methylpiperidin-3-yl)methoxy)phenyl)-5-(pyrazin-2-ylamino)-1H-pyrazole-4-carboxamide], for which the Kd on RIP3 and at RIP1 was over 30 µM in each case.
In the case of `CCS(=O)(=O)Nc1ccc(-c2n[nH]c(Nc3cccnc3C(F)(F)F)c2C(N)=O)cc1OCc1ccc(F)cc1` [Compound 192, 3-(4-(ethylsulfonamido)-3-((4-fluorobenzyl)oxy)phenyl)-5-((2-(trifluoromethyl)pyridine-3-yl)amino)-1H-pyrazole-4-carboxamide], the Kd at RIP3 and at RIP1 was over 30 µM throughout.
`CCS(=O)(=O)Nc1ccc(-c2n[nH]c(Nc3cccc(C(F)(F)F)n3)c2C(N)=O)cc1OCC1CCCCC1` [Compound 200]: the Kd on RIP3 and at RIP1 was over 30 µM throughout.
Consider `CCS(=O)(=O)Nc1ccc(-c2n[nH]c(Nc3cnccn3)c2C(N)=O)cc1OCC1CCN(C)CC1` [Compound 203, 3-(4-(ethylsulfonamido)-3-((1-methylpiperidin-4-yl)methoxy)phenyl)-5-(pyrazin-2-ylamino)-1H-pyrazole-4-carboxamide], for which the Kd on RIP3 and on RIP1 was over 30 µM throughout.
